{"source": "patent US11571389B2", "about": "“Delivery devices and methods for making the same” (THE REGENTS OF THE UNIVERSITY OF MICHIGAN, priority 2016, dated 2023)", "key": {"[1]": {"test_system": "procollagen I N-terminal propeptide (P1NP)", "assay": "Serum P1NP ELISA three weeks after implantation, Example 2", "format": "in vivo, C57BL/6 mice", "procedure": "(§1) Three weeks after implantation, the mice were anaesthetized with inhalation of isoflurane (2%) and blood was collected by tail blood draw. After centrifuge for 10 minutes at 13000 rpm, serum was separated and kept frozen until biochemical assays were performed. Serum procollagen I N-terminal propeptide (P1NP) (MyBioSource, Inc) and TRAP5b (Novatein Biosciences, Mass.) ELISA immunoassays were performed following the manufacturer's protocols. The ELISA analyses were employed to evaluate the levels of bone biomarkers."}, "[2]": {"test_system": "TRAP5b", "assay": "Serum TRAP5b ELISA three weeks after implantation, Example 2", "format": "in vivo, C57BL/6 mice", "procedure": "as §1"}, "[3]": {"test_system": "mouse tibiae", "assay": "Tibiae μCT to assess systemic side effects of local PTH release, Example 2", "format": "in vivo, C57BL/6 mice", "details": "compared to the BSA control group", "procedure": "(§2) To determine the optimal PTH release mode to ensure desired PTH anabolic action in bone regeneration, the pulsatile PTH delivery device and the continuous PTH delivery device were compared in identical experimental set ups to access the outcomes of bone regeneration in a critical size (2.3 mm in diameter) round defect created in the mouse skull. The BSA loaded pulsatile devices were used as vehicle controls. All animal procedures were performed following a protocol approved by the University of Michigan Institutional Animal Care and Use Committee. C57BL/6 mice were randomly divided into four groups. Animals were anaesthetized with isoflurane (2%) inhalation. The 2.3 mm diameter craniotomy defect centered on the parietal calvarial bone was created using a trephine. A blank nanofibrous scaffold was placed to fill in the defect and a delivery device (pulsatile PTH, continuous PTH, or BSA control device) was placed adjacent to the scaffold with the opening side facing the scaffold (see FIG. 24).\nRather, PTH was subcutaneously injected for 3 weeks (21 days) using a standard systemic administration dose (40 μg/kg/d). […]\nMouse tibiae from the different groups were examined using μCT to assess the potential systemic side effects of the local PTH releases. […] A region of 0.75 mm right below the growth plate was analyzed to quantify the trabecular bone volume."}, "[4]": {"test_system": "mouse calvarial defect", "assay": "Mouse calvarial critical size defect with nanofibrous scaffold: μCT of new bone 8 weeks after implantation", "format": "in vivo, C57BL/6 mice", "details": "compared to the control BSA group; μCT and histomorphometry", "procedure": "as §2, with “24). […]” for “24).”\nFor the calvarial bone analysis, the skulls were scanned with a fixed global threshold of 20%. 3D reconstruction of the skull and quantitative analyses were performed. A 2.3 mm-round region of interest centered on the defect was determined and the bone volume (mm^3) (BV) and bone mineral density (BMD) in the area were measured using manufacturer's software (Scanco μCT 100)."}, "[5]": {"details": "in vivo; cited from earlier work"}}}
{"substance": "PTH (1-34)", "values": [{"measurement": "serum P1NP level (bone formation marker)", "setting": "[1]", "value": "significantly elevated"}, {"measurement": "serum TRAP5b level (bone resorption marker)", "setting": "[2]", "value": "significantly elevated"}, {"measurement": "tibia trabecular bone volume", "setting": "[3]", "value": "significantly increased"}, {"measurement": "bone growth in the nanofibrous scaffold", "setting": "[4]", "value": "significantly promoted"}, {"measurement": "half-life", "setting": "[5]", "value": 8, "unit": "min"}]}
